The series in a line: Particle size distribution of jet milled palonosetron fine powder by HELOS Particle Size Analyzer. The class given is physicochemical. The method, then:
Palonosetron HCl was milled with a 2-in pancake Jet Mill and flexible containment. The process air was nitrogen. The jet milling was conducted at Catalent Micron Technologies, Malvern, Pa., USA.
The particle size distribution of the palonosetron fine powder, prepared by jet milling, was measured by HELOS Particle Size Analyzer (Sympatec GmbH, Germany) at Micron Technologies, Inc., Malvern, Pa., USA.
The Particle Size Distribution parameters are: • D10: 0.68 μm • D50: 1.39 μm • D90: 2.89 μm • D95: 3.68 μm • D99.5: 6.92 μm • Cumulative % <9 μm: 100%

Counter-ions that a name gives are not always drawn.

For the compound `O=C1c2cccc3c2[C@H](CCC3)CN1[C@@H]1CN2CCC1CC2` [Jet Milled Palonosetron Fine Powder, Palonosetron HCl], the “Cumulative % <9 μm” value is 100%, the D10 is 0.68 μm, the D50 came out at 1.39 μm and the D90 was 2.89 μm. The compound also showed a D95 of 3.68 μm and a D99.5 of 6.92 μm.

The values are drawn from patent US20210100788A1, “PALONOSETRON FORMULATIONS AND USES THEREOF” (LUXENA PHARMACEUTICALS, INC., priority 2014, published 2021).
